Literature values in patent publication US11377445B2, “Derivatives of paliperidone and process for the preparation thereof” (Zenvision Pharma LLP, priority 2018, dated 2022).

solubility in 0.1N HCl (0.1N HCl)	solubility in 0.1N NaOH (0.1N NaOH)	solubility in N, N-dimethylformamide (N, N-dimethylformamide)	solubility in hexane (hexane)	solubility in methylene chloride (methylene chloride)	solubility in water (water)	solubility in ethanol (ethanol)	solubility in ethyl acetate (ethyl acetate)	solubility in methanol (methanol)	solubility in polyethylene glycol 400 (polyethylene glycol 400)	solubility in propylene glycol (propylene glycol)	SMILES
sparingly soluble	practically insoluble	slightly soluble	practically insoluble	sparingly soluble	practically insoluble	–	–	–	–	–	Cc1nc2n(c(=O)c1CCN1CCC(c3noc4cc(F)ccc34)CC1)CCCC2O (racemic) [Paliperidone, (±)-3-[2-[4-(6-fluoro-1,2-benzisoxazol-3-yl)-1-piperidinyl]ethyl]-6,7,8,9-tetrahydro-9-hydroxy-2-methyl-4Hpyrido[1,2-a]pyrimidin-4-one]
–	–	–	–	–	–	very slightly soluble	slightly soluble	very slightly soluble	practically insoluble	practically insoluble	CCCCCCCCCCCCCCCC(=O)OC1CCCn2c1nc(C)c(CCN1CCC(c3noc4cc(F)ccc34)CC1)c2=O (centres unmarked) [Paliperidone palmitate]
